Results on 21 molecules are retold here after US20180209956A1, “HTS Assay for Identifying Small Molecule Inhibitors of RAD52 and Uses of Identified Small Molecule Inhibitors for Treatment and Prevention of BRCA-Deficient Malignancies” (University of Iowa Research Foundation, priority 2015, published 2018).

The IC50 is the concentration needed to halve the response being measured.

Where a name gives a salt, the structure may show the parent alone. Read-outs that look alike come from different tables or passages of the source. Where only a bound is given, the exact number is not on record here.

One series deals with T1, RAD52-ssDNA interaction (Homo sapiens, UniProt P43351).
T1 construct: made in house
T1 sequence (P43351 1-418): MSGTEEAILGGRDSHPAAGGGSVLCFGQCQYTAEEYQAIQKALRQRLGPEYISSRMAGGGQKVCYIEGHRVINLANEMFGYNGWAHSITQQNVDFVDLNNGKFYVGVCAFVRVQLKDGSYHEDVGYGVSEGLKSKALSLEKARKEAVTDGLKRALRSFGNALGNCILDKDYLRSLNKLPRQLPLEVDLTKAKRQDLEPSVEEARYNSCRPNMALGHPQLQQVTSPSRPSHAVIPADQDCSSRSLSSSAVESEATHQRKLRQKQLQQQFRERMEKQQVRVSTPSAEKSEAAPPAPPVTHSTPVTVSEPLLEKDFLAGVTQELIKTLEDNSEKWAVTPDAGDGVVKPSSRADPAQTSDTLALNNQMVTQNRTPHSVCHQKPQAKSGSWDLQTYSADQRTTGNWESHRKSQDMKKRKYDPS
Kind of series: FRET-based ssDNA binding and wrapping assay (RAD52-Cy3-dT30-Cy5 complex). The conditions noted are these: for IC50: read-out: IC50 (DNA binding); for IC50 range for ssDNA binding and wrapping, in words: summary of Table 1. As for the experimental part: We titrated increasing amounts of each compound into a cuvette containing preformed stoichiometric RAD52-Cy3-dT30-Cy5 complexes (1 nM Cy3-dT30-Cy5 and 8 nM RAD52). […] At each concentration of the compound, the FRET signal was adjusted for the change in Cy3 and Cy5 fluorescence in the presence of the compound, but in the absence of protein.
FRET-based DNA binding and annealing assays: FRET-based ssDNA binding, dsDNA binding, and annealing assays were carried out as previously described (Grimme et al., 2010, Grimme and Spies, 2011) using Cary Eclipse spectrofluorimeter (Varian) at 25° C. in buffer containing 30 mM Tris-Acetate pH7.5, 1 mM DTT, and 0.1 mg/mL BSA. Cy3 dye was excited at 530 nm and its emission was monitored at 565 nm. Emission of Cy5 acceptor fluorophore excited through the energy transfer from Cy3 donor is monitored at 660 nm simultaneously with emission of Cy3 dye. Both the excitation and the emission slit widths were set to 10 nm.
All experiments were performed in triplicates, and the data are shown as averages and standard deviations for three independent measurements. To remove possible experimental artifacts associated with chromogenic or fluorogenic compounds, as well as with the compounds that may quench or enhance Cy3 or Cy5 fluorescence, we also performed control titrations whereby we titrated each compound into 1 nM Cy3-dT30-Cy5 in the absence of RAD52. For each compound concentration we subtracted the difference in the FRET signal in the presence and absence of the compound from the respective FRET signal in the presence of RAD52. The FRET signal corrected for the compound fluorescence was calculated using the equation: […]
as previously described (Grimme et al., 2010, Grimme and Spies, 2011) and plotted as a function of compound concentration and fitted to the following inhibition model”
where FRET0 is the initial FRET value of RAD52-ssDNA complex in the absence of the compound and FRETmin is the FRET value at complete inhibition. FRET values were calculated as an average of three or more independent annealing reactions plotted against the concentration of the compound. Inhibition of the RAD52-dsDNA interaction was assayed in a similar experiment, except the stoichiometric complexes containing 1 nM molecules of Cy3-Oligo28-Cy5 duplex DNA and 10 nM RAD52. […] In all experiments, the FRET values for each data point were corrected for the effects of the compounds on the respective substrate in the absence of RAD52.

Series [1] concerns the target T2, RAD52-mediated ssDNA annealing (Homo sapiens, UniProt P43351).
T2 construct: made in house
T2 sequence (P43351 1-418): T1 sequence (P43351 1-418)
The experiment in a line: FRET-based RAD52-mediated ssDNA annealing assay. The format is biochemical. The conditions noted are these: Table 1, read-out: IC50 Annealing Extent. An excerpt:
These assays utilize two complementary single stranded 28-nucleotide-long substrates, which contain either Cy3 (T-28) or Cy5 (P-28) incorporated into the middle of the respective DNA strand. When the substrates are annealed by RAD52, the Cy3 and Cy5 dyes are separated by 3 base pairs and yield a high FRET signal (FIG. 2 Supplement 2). […] The annealing reactions were initiated by mixing two half reactions and observing the change in FRET over time in the presence of varying concentrations of small molecules. An increasing FRET value over time indicates formation of the dsDNA duplex which brings the two dyes in close proximity (FIG. 2 Supplement 2). Fitting the annealing data to a double exponential allowed us to calculate and compare the final extent of annealing at varying concentrations of each compound compared to RAD52 alone. We plotted the final extent of annealing vs the concentration of the compound and calculated an IC50 of annealing inhibition.
Annealing of complementary oligonucleotides by RAD52 was monitored under identical conditions as the binding assays described above. For each assay, the reaction master mixture containing 8 nM RAD52 protein in the presence and absence of the compounds at varying concentrations was prepared at room temperature and divided into two half reactions. Following baseline buffer and protein measurements, 0.5 nM of T-28 ssDNA substrate was added to the reaction cuvette and the signal was allowed to stabilize. The annealing reaction was initiated upon addition of the second half-reaction pre-incubated with 0.5 nM P-28 ssDNA substrate. The fluorescence of Cy3 and Cy5 were measured simultaneously over the reaction time course (500 s). FRETapp values were calculated as an average of three or more independent annealing reactions plotted against time (s). The average FRET values were fitted to a double exponential to calculate the final extent of annealing using Graphpad Prism4 software. The calculated annealing extent was plotted as a function of compound concentration and fitted to the same model as we used to determine IC50 values for the inhibition of DNA annealing.

Series [2] is described as follows: Solubility observed during testing. Type of series: physicochemical. As to conditions: DMSO at 25 mM.
The mark [3] stands for this setting: Table 2, methods similar to Example 1.
[4] abbreviates: Table 1, ssDNA, 1 nM Cy3-dT30-Cy5, 8 nM RAD52.

For `COc1cc(/C=N/NC(=O)CCC(C)O)ccc1O` (stereo not drawn) [Compound R33, 4-hydroxy-N′-(4-hydroxy-3-methoxybenzyliden)pentanohydrazide], at RAD52-ssDNA interaction (Table 2), the “FRET value at saturation” value worked out at 0.56 ± 0.01. Moreover, the IC50 on RAD52-ssDNA interaction (setting [3]) stood at 0.849 ± 0.21 µM.
In the case of `NCCc1cc(O)c(O)cc1O` [Compound 14, Oxidopamine], the “FRET value at saturation” value on RAD52-ssDNA interaction (Table 1) is listed as 0.50 ± 0.01. Moreover, the IC50 at RAD52-ssDNA interaction (setting [4]) is 0.779 ± 0.051 µM. For the same molecule, the “IC50 range for ssDNA binding and wrapping, in words” value (from here on “IC50 range”) on RAD52-ssDNA interaction is listed as “nano-molar range”.
The like results for `Oc1cc(O)c2c(c1)O[C@H](c1ccc(O)c(O)c1)[C@H](O)C2` [Compound 7, (−)-Epicatechin] were, in that order, 0.51 ± 0.01, 1.45 ± 0.11 µM and “micro-molar range”.
As to Asiatic Acid [Compound 18], the IC50 is > 800 µM at RAD52-ssDNA interaction (setting [4]) and > 100 µM in series [1]. For the same molecule, at RAD52-ssDNA interaction, the “IC50 range” value is given as “high micro-molar range”.
`Cc1ccc2c(c1)C(=O)CC(O)(C(F)(F)F)O2` (stereo not drawn) [Compound R20, 2-hydroxy-6-methyl-2-(trifluoromethyl)-2,3-dihydro-4H-chromen-4-one]: on RAD52-ssDNA interaction (Table 2), the “FRET value at saturation” value worked out at 0.49 ± 0.01. For the same molecule, the IC50 on RAD52-ssDNA interaction (setting [3]) is 0.938 ± 0.012 µM.
As for `CCOc1ccccc1NC(=O)c1c(NC(=O)Cc2ccc(OC)cc2)sc2c1CCC2` [Compound R29, N-(2-ethoxyphenyl)-2-{[(4-methoxyphenyl)acetyl]amino)-5,6-dihydro-4H-cyclopenta[b]thiophene-3-carboxamide], the Solubility entry in series [2] is given as “Compound is insoluble in DMSO at 25 mM”.
Consider `CC1(C)C(=O)C=C[C@@]2(C)C1=C(O)C(=O)[C@]1(C)[C@@H]2CC[C@@]2(C)[C@H](c3ccoc3)C[C@H]3O[C@]321` [Compound 17, Cedrelone], for which the IC50 at RAD52-ssDNA interaction (setting [4]) was > 300 µM. In addition, the “IC50 range” value at RAD52-ssDNA interaction is reported as “high micro-molar range”.
Regarding `O=C(O[C@@H]1Cc2c(O)cc(O)cc2O[C@@H]1c1ccc(O)c(O)c1)c1cc(O)c(O)c(O)c1` [Compound 5, (−)-Epicatechin gallate], the “FRET value at saturation” value on RAD52-ssDNA interaction (Table 1) amounted to 0.41 ± 0.004. In addition, the results for the IC50 (at RAD52-ssDNA interaction (setting [4]); in series [1]) were 0.255 ± 0.016 µM and 20 ± 0.7 µM, respectively. The “IC50 range” value on RAD52-ssDNA interaction was “nano-molar range”.
For the molecule `COc1cc(C2C(C(=O)OCC3CCCO3)=C(C)NC3=C2C(=O)CC(C)(C)C3)ccc1O` (stereo not drawn) [Compound R30, Tetrahydro-2-furanylmethyl 4-(4-hydroxy-3-methoxyphenyl)-2,7,7-trimethyl-5oxo-1,4,5,6,7,8-hexahydro-3-quinolinecarboxylate], the “FRET value at saturation” value at RAD52-ssDNA interaction (Table 2) is given as 0.59 ± 0.01. Besides, on RAD52-ssDNA interaction (setting [3]), the 50% inhibitory concentration (IC50) is 1.3 ± 0.19 µM.
In the case of “Rolitetracycline [Compound ‘4’, reference compound]”, the “FRET value at saturation” value on RAD52-ssDNA interaction (Table 1) is 0.56 ± 0.04. For the same molecule, the IC50 on RAD52-ssDNA interaction (setting [4]) is 29 ± 8.2 µM. Further, on RAD52-ssDNA interaction, the “IC50 range” value is “mid micro-molar range”.
On to `C=C1c2cccc(O)c2C(=O)C2=C(O)[C@]3(O)C(=O)C(C(N)=O)=C(O)[C@@H](N(C)C)[C@@H]3[C@@H](O)[C@H]12` [Compound 3, Methacycline Hydrochloride, reference compound], for which the “FRET value at saturation” value at RAD52-ssDNA interaction (Table 1) is listed as 0.47 ± 0.01. Further, the figures for the half-inhibitory concentration (IC50) (on RAD52-ssDNA interaction (setting [4]); in series [1]) were 2 ± 0.17 µM and 3.8 ± 0.2 µM, respectively. Further, the “IC50 range” value at RAD52-ssDNA interaction was “micro-molar range”.
Take `O/N=C1/CC(O)(C(F)(F)F)Oc2ccccc21` (stereo not drawn) [Compound R21, 2-hydroxy-2-(trifluoromethyl)-2,3-dihydro-4H-chromen-4-one oxime]: the “FRET value at saturation” value on RAD52-ssDNA interaction (Table 2) is on record as 0.483 ± 0.01. Besides, at RAD52-ssDNA interaction (setting [3]), the IC50 came out at 76 ± 5.57 µM.
As to `COc1cc(N)c(Cl)cc1C(=O)N[C@H]1CCN(CCCOc2ccc(F)cc2)C[C@H]1OC` [Compound 16, Cisapride Monohydrate, reference compound], on RAD52-ssDNA interaction (Table 1), the “FRET value at saturation” value was determined as 0.50 ± 0.01.
As for `CCOc1ccc(C2Nc3ccccc3-c3nnc(SCc4ccccc4)nc3O2)cc1` (stereo not drawn) [Compound R26, 3-(benzylthio)-6-(4-ethoxyphenyl)-6,7-dihydro[1,24]triazino[5,6-d][3,1]benzoxazepine], the “FRET value at saturation” value at RAD52-ssDNA interaction (Table 2) is given as 0.46 ± 0.01. The IC50 on RAD52-ssDNA interaction (setting [3]) stood at 1.9 ± 0.5 µM.
In the case of `O=C1c2ccc(O)c(O)c2C(=O)c2c(O)ccc(O)c21` [Compound 15, Quinalizarin], the “FRET value at saturation” value on RAD52-ssDNA interaction (Table 1) worked out at 0.51 ± 0.01. Further, the IC50 at RAD52-ssDNA interaction (setting [4]) amounted to 0.563 ± 0.04 µM; in series [1] it was 5.6 ± 0.6 µM. Besides, on RAD52-ssDNA interaction, the “IC50 range” value is reported as “nano-molar range”.
`CC(C)(O)C1Cc2cc3ccc(=O)oc3cc2O1` (stereo not drawn) [Compound R24, 2-(1-hydroxy-1methylethyl)-2,3-dihydro-7H-furo[3,2-g]crhomen-7-one]: the “IC50 (DNA binding)” value at RAD52-ssDNA interaction (setting [3]) is given as “No inhibition”.
Regarding `O=c1c(O)c(-c2ccc(O)c(O)c2)oc2c(O)c(O)cc(O)c12` [Compound 19, Gossypetin], the “FRET value at saturation” value on RAD52-ssDNA interaction (Table 1) was 0.49 ± 0.01. In addition, the IC50 on RAD52-ssDNA interaction (setting [4]) stood at 0.913 ± 0.058 µM; in series [1], 6 ± 2.3 µM. In addition, the “IC50 range” value on RAD52-ssDNA interaction is “nano-molar range”.
For `c1ccc(CSc2nnc3c(n2)OC(c2ccc4c(c2)OCO4)Nc2ccccc2-3)cc1` (stereo not drawn) [Compound R25, 6-(1,3-benzodioxol-5-yl)-3-(benzylthio)-6,7-dihydro[1,2,4]triazino[5,6-d][3,1]benzoxazepine], the “FRET value at saturation” value on RAD52-ssDNA interaction (Table 2) is given as 0.45 ± 0.01. The IC50 at RAD52-ssDNA interaction (setting [3]) amounted to 1.6 ± 0.15 µM.
For `COc1ccc(C(=O)Nc2ccccc2C(=O)NC(C(=O)Nc2ccccc2)C(C)C)cc1` (stereo not drawn) [Compound R32, N-[1-(anilinocarbonyl)-2-methylpropyl]-2-[(4-methoxybenzoyl)amino]benzamide] the same measures were 0.45 ± 0.01 and 1.25 ± 0.34 µM.
For `CC(O)CC1(O)C(=O)N(C)c2ccccc21` (stereo not drawn) [Compound R23, 3-hydroxy-3-(2-hydroxypropyl)-1-methyl-1,3-dihydro-2H-indol-2-one] the same measures were 0.39 ± 0.01 and 84.1 ± 1.04 µM.
The like results for `CC1(C)COC(O)(C(F)(F)F)CC1=O` (stereo not drawn) [Compound R22, 2-hydroxy-5,5-dimethyl-2-(trifluoromethyl)tetrahydro-4H-pyran-one] were, in that order, 0.49 ± 0.01 and 184 ± 12 µM.
